Reference: patent US20130267532A1, “CYCLIC AMIDE COMPOUNDS AND THEIR USE IN THE TREATMENT OF DISEASE” (priority 2010, published 2013)

Columns and labels:
full-length human TLR8 = target: T1, full-length human TLR8 (Homo sapiens, UniProt Q9NR97); test: Human TLR8 assay (TLR8/NF-κB/SEAPorter HEK 293 cell line); type: cell-based; conditions: TLR8 activation, SEAP induction, HEK 293 reporter cells, overnight incubation at 37° C., 0.1% DMSO
T1 construct: a stably co-transfected cell line which expresses full-length human TLR8; host or cells: TLR8/NF-κB/SEAPorter HEK 293 Cell Line
T1 sequence (Q9NR97 27-1041): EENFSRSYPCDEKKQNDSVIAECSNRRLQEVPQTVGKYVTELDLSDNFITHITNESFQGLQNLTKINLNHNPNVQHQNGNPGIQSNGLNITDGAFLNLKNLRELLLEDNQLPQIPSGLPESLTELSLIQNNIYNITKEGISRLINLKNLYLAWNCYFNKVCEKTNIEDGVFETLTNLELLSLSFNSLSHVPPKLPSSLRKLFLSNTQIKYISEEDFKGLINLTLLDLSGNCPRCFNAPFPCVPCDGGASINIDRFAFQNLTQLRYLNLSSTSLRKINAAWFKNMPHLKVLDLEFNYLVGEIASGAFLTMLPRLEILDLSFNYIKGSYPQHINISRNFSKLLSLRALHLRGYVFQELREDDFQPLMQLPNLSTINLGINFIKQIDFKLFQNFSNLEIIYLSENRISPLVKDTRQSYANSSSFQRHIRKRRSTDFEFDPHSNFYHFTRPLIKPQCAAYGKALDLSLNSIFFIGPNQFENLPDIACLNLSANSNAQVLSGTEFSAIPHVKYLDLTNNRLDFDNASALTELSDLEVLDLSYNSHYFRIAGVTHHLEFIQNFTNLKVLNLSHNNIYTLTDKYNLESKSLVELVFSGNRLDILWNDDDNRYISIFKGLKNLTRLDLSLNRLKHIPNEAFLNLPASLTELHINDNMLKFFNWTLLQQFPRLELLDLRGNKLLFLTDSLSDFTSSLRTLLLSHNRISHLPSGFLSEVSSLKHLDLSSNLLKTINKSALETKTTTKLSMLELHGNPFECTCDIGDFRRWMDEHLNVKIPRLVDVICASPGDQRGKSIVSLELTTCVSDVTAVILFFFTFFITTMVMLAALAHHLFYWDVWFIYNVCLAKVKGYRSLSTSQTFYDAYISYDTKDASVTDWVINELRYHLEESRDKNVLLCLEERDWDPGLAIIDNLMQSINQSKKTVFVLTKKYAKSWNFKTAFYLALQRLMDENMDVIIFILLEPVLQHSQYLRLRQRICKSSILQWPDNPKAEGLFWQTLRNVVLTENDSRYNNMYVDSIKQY
Description: TLR8/NF-κB/SEAPorter™ HEK 293 Cell Line (Imgenex Corporation) is a stably co-transfected cell line which expresses full-length human TLR8 and the secreted alkaline phosphatase (SEAP) reporter gene under the transcriptional control of an NF-κB response element. TLR8 expression in this cell line has been tested by flow cytometry. Transfectants with stable expression were selected using the antibiotic blasticidin and geneticin. TLR signaling leads to the translocation of NF-κB and activation of the promoter results in expression of the SEAP gene. TLR8-specific activation was assessed by determining the level of SEAP produced following overnight incubation of the cells at 37° C. with the standard compound in the presence of 0.1% (v/v) dimethylsulfoxide (DMSO). Concentration dependent induction of SEAP production by compounds was expressed as the concentration of compound which produced half of the maximal level of SEAP induction for that compound (EC50).

hERG potassium channel = target: T2, hERG potassium channel (Homo sapiens, UniProt Q12809); test: hERG analysis Method 1 (QPatch HT automated patch clamp, CHO cells); type: cell-based; conditions: hERG-expressing CHO cells, tail current, room temperature (22±2° C.), 4 cumulative concentrations
T2 construct: expressed in transfected cells; host or cells: Chinese hamster ovary K1 (CHO) cells stably expressing hERG
T2 sequence (Q12809 whole entry): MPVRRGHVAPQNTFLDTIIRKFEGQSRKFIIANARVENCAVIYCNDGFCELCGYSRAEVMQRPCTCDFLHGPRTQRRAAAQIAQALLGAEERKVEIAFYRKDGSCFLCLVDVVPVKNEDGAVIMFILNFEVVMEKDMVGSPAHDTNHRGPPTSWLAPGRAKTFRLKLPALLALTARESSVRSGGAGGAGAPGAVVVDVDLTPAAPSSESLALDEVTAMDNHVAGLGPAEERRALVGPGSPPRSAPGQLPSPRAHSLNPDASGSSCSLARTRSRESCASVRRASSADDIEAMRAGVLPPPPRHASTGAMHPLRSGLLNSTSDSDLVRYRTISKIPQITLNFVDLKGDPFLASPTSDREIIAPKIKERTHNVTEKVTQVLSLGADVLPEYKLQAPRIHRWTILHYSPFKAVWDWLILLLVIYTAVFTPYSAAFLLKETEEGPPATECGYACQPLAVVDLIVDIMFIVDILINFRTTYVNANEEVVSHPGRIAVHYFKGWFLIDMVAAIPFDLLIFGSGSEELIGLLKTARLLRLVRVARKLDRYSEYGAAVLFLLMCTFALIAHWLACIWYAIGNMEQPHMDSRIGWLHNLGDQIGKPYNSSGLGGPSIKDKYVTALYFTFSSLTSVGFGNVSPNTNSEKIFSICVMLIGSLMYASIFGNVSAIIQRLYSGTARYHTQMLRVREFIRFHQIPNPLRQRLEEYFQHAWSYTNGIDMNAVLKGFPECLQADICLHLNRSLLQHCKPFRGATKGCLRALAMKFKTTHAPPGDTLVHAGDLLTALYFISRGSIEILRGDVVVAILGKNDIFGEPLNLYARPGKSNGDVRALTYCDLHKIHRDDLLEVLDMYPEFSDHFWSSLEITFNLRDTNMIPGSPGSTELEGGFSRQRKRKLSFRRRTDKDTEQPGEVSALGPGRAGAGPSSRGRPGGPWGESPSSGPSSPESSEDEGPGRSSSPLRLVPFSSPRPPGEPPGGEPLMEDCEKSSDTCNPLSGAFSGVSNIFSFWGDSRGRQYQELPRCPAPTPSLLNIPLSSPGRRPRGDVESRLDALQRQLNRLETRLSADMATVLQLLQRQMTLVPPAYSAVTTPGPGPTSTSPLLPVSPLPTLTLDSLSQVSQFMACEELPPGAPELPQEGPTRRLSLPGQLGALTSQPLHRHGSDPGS
Experimental: hERG (Human Ether-a-go-go Related Gene) Analysis—Method 1
The hERG potassium current is measured in a hERG-stably-expressing Chinese hamster ovary K1 (CHO) cells. The experiments were performed using an automated planar patch-clamp system QPatch HT (Sophion Bioscience A/S). The application of pressure for forming gigaseals and whole-cell patch clamp configuration were established using the QPatch assay software. Patch-clamp experiments were performed in voltage-clamp mode and whole-cell currents were recorded from individual cells. The following stimulation protocol was applied to investigate the effects of compounds on hERG potassium channel.: The membrane potential was held at −80 mV and repetitively (every 15 s) depolarized to +20 mV for 5 s after the pulse to −50 mV for 20 ms served to define the baseline, followed by repolarizing step to −50 mV for 5 s to evaluate of the tail current amplitude. Experiments were conducted at room temperature (22±2° C.).
Effects of compounds were determined from cumulative applications of increasing 4 concentrations and calculated as percent of blocked current. The data points were fitted with Hill equation to calculate half-maximal inhibition concentrations.
The test solution includes:
Extracellular solution (mM): 2 mM of CaCl2, 1 mM of MgCl2, 10 mM of HEPES, 4 mM of KCl, 145 mM of NaCl, and 10 mM of glucose; and
Intracellular solution (mM): 5.4 mM of CaCl2, 1.8 mM of MgCl2, 10 mM of HEPES, 31 mM of KOH, 10 mM of EGTA, 120 mM of KCl, and 4 mM of ATP.

PAMPA analysis = type: in vitro ADME; conditions: pH 7.4, GIT Lipid-0, incubation for 4 h, read-out: Pe pH 7.4
Experimental: Donor: System Solution Concentrate (pION inc.) (25 mL) and DMSO (50 mL) (f.c. 5%) was diluted to 1 L with milliQ water, adjusted to pH5.0 or 7.4 with NaOH. Compound solution (5 μL, 10 mM solution in DMSO) was added to 1 mL of system solution prepared as above, and filtered.
Acceptor: Acceptor Sink Buffer(pION inc.)
Compound solution (200 μL) was added to Donor plate. GIT Lipid-0 (pION inc.) […] was added to Acceptor plate. Acceptor Sink Buffer (200 μL) was added to Acceptor plate. Donor and Acceptor plates were superposed. After incubation for 4 h under humidified conditions, the concentration of test compound in both solutions of Acceptor and Donor plates were measured by UV plate reader (190-500 nm). Permeation coefficient Pe(10^−6 cm/sec) was calculated by the equation shown below.
[formula] ra=(VD/VA)Pe^(A→D)/Pe^(D→A)=rVPe^(A→D)/Pe^(D→A)
rV=(VD/VA) • VD=volume of donor well • VA=volume of acceptor well • t=permeation time • τ^SS=steady state time • R=retention • CD and CA=concentration in donor and acceptor well The results are shown in Table 4.

Row | SMILES | EC50 (full-length human TLR8) | IC50 (hERG potassium channel) | Papp at 4 h, 50 µM (PAMPA analysis)
1 | CCCCNc1nc(N)nc(C)c1Cc1ccc(N2CCN(C)CC2=O)cc1OC [Example 1, 1-(4-{[2-Amino-4-(butylamino)-6-methylpyrimidin-5-yl]methyl}-3-methoxyphenyl)-4-methylpiperazin-2-one] | > 10 µM | 2.9 µM | 35.6 ×10⁻⁶ cm/s
2 | CCC[C@@H](CCO)Nc1nc(N)nc(C)c1Cc1ccc(N2CCN(C)CC2=O)cc1OC [Example 3, (S)-1-(4-{[2-Amino-4-(1-hydroxyhexan-3-ylamino)-6-methylpyrimidin-5-yl]methyl}-3-methoxyphenyl)-4-methylpiperazin-2-one] | 6.31 µM | > 10 µM | 23.7 ×10⁻⁶ cm/s
3 | CCC[C@@H](CCO)Nc1nc(N)nc(C)c1Cc1ccc(N2CCNCC2=O)cc1OC [Example 5, (S)-1-(4-{[2-Amino-4-(1-hydroxyhexan-3-ylamino)-6-methylpyrimidin-5-yl]methyl}-3-methoxyphenyl)piperazin-2-one] | > 10 µM | > 10 µM | < 0.1 ×10⁻⁶ cm/s
4 | CCC[C@@H](CO)Nc1nc(N)nc(C)c1Cc1ccc(N2CCN(C)CC2=O)cc1OC [Example 4, (S)-1-(4-{[2-Amino-4-(1-hydroxypentan-2-ylamino)-6-methylpyrimidin-5-yl]methyl}-3-methoxyphenyl)-4-methylpiperazin-2-one] | 5.01 µM | > 10 µM | 1.3 ×10⁻⁶ cm/s
5 | CCCCCNc1nc(N)nc(C)c1Cc1ccc(N2CCN(C)CC2=O)cc1OC [Example 2, 1-(4-{[2-Amino-4-methyl-6-(pentylamino)pyrimidin-5-yl]methyl}-3-methoxyphenyl)-4-methylpiperazin-2-one] | > 10 µM | 0.8 µM | 44.2 ×10⁻⁶ cm/s
